Test results: article PMC5107307 (ACS chemical biology, 2016)
“And” between values parts separate entries of the source, which are not always exact repeats. Identical values can stand only once. Non-standard residues stand in square brackets, D forms with d. Residues, ends and D or L forms follow the SMILES beside them.

Assays:
PTHR1 [1] = target: T1, PTHR1 (Homo sapiens, UniProt Q03431); test: PTHR1 competition binding assay with 125I-PTH
T1 sequence (Q03431 27-593): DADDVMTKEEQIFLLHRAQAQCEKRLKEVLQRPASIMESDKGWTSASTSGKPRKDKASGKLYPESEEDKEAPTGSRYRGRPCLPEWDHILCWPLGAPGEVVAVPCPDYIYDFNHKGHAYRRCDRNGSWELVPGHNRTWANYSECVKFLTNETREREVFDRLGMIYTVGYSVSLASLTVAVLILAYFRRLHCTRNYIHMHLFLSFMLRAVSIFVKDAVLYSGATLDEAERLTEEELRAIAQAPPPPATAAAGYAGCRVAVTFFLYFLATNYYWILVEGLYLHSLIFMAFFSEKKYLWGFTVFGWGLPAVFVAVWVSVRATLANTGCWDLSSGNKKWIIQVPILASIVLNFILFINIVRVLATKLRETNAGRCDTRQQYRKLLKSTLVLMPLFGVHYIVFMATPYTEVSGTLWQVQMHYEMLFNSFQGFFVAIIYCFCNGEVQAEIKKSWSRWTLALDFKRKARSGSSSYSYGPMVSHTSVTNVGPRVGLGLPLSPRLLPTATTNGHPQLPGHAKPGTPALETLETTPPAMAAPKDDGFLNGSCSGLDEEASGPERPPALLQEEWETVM

PTHR1 [2] = target: T1, PTHR1; test: Antagonism of agonist-stimulated cAMP generation in SGS-72 cells; type: cell-based
bovine trypsin = target: T2, bovine trypsin (Bos taurus, UniProt P00760); test: in vitro; type: in vitro ADME
T2 sequence (P00760 24-246): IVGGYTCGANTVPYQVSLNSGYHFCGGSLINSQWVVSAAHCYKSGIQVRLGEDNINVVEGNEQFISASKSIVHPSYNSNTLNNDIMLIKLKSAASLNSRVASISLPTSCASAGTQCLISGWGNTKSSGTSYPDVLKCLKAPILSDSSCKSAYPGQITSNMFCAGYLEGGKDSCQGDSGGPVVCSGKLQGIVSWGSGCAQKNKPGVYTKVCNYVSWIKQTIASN

female CD1 mice = test: Antagonism of PTH; type: in vivo, mouse; conditions: antagonist 500 nmol/kg s.c. one hour after PTH(1–34) 10 nmol/kg
proteinase K = proteinase K (Parengyodontium album, UniProt P06873); test: in vitro; conditions: fungal, proteinase K (isolated protease)
SGS-72 cells = test: Effect on basal cAMP levels in SGS-72 cells; conditions: Fig. S1a
VIP-receptor 1 (VIPR1) = target: T3, VIP-receptor 1 (VIPR1) (Homo sapiens, UniProt P32241); test: Inhibition of VIP-induced cAMP production in SGS-72 cells
T3 sequence (P32241 31-457): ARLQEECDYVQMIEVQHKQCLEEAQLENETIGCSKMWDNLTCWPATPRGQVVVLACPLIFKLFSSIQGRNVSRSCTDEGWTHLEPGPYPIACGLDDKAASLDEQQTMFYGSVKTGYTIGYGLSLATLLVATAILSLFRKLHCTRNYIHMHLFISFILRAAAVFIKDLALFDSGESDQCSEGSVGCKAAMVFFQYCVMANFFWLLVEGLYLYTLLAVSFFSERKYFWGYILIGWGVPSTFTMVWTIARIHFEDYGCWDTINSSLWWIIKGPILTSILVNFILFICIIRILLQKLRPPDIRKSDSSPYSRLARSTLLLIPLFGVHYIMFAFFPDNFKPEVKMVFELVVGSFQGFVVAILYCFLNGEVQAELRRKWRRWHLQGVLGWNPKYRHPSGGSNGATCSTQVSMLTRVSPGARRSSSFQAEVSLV

β2-adrenergic receptor = β2-adrenergic receptor (Homo sapiens, UniProt P07550); test: Effect on isoproterenol-stimulated cAMP production in SGS-72 cells; conditions: Fig. S1b
[3] = prior pharmacokinetic/pharmacodynamic data; cited from earlier work
[4] = radiolabeled peptide; cited from earlier work
[5] = tested on: constitutively active PTHR1 variants; conditions: cited from earlier work

Sequence of proteinase K (P06873 106-384): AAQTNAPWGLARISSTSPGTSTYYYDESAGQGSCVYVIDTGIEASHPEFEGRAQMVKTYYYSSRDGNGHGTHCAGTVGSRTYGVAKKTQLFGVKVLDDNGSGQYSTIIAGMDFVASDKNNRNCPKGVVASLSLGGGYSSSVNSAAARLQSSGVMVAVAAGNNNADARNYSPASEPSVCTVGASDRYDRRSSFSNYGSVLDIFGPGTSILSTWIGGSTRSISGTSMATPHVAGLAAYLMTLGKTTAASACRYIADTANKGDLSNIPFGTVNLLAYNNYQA
Sequence of β2-adrenergic receptor (P07550 whole entry): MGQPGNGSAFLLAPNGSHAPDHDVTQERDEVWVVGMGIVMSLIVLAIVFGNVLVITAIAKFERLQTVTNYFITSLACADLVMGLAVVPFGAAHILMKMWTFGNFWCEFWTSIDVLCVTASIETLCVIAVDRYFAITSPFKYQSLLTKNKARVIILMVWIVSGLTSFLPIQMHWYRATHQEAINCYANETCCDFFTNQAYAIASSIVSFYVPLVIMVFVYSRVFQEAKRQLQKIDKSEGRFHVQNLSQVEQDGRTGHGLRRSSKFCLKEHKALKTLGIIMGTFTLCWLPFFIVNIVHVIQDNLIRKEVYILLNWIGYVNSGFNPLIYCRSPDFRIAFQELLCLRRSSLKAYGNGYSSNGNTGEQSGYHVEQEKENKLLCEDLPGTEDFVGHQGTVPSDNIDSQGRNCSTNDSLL

SMILES	IC50 (PTHR1 [1]) [nM]	IC50 (PTHR1 [2])	Reduction in M-PTH(1–11) inhibition potency of 2 in comparison to 1 (PTHR1 [2]; SGS-72 cells, cAMP response to M-PTH(1–11)) [fold]	Protease stability, half life, Trypsin (bovine trypsin) [s]	Effect on PTH(1–34)-induced blood Ca2+ response, antagonist given after agonist (female CD1 mice)	Effect on PTH(1–34)-induced blood Pi response, antagonist given after agonist (female CD1 mice)	half-life (proteinase K) [s]	Effect on low basal cAMP levels in SGS-72 cells (SGS-72 cells)	IC50 (VIP-receptor 1 (VIPR1)) [nM]	Effect on stimulation of cAMP production caused by isoproterenol (β2-adrenergic receptor)	Half-life of clearance from the circulation [3] [s]	Stability in plasma [4]	half-life (bovine trypsin; bovine, isolated enzyme trypsin) [s]	Inverse agonism of cAMP signaling at constitutively active PTHR1 variants [5]
CSCC[C@@H](CC(=O)N[C@@H](CCC(=O)O)C(=O)N[C@@H](CCCNC(=N)N)C(=O)N[C@H](C(=O)N[C@@H](CCC(=O)O)CC(=O)N[C@@H](Cc1c[nH]c2ccccc12)C(=O)N[C@@H](CC(C)C)C(=O)N[C@@H](CCCNC(=N)N)C(=O)N[C@@H](CCCCN)CC(=O)N[C@@H](CCCCN)C(=O)N[C@@H](CC(C)C)C(=O)N[C@@H](CCC(N)=O)C(=O)N[C@@H](CC(=O)O)CC(=O)N[C@H](C(=O)N[C@@H](Cc1c[nH]cn1)C(=O)N[C@@H](CC(N)=O)C(=O)N[C@H](CC(N)=O)Cc1ccccc1)C(C)C)C(C)C)NC(=O)[C@H](CO)NC(=O)[C@H](CO)NC(=O)[C@H](CC(C)C)NC(=O)C[C@H](Cc1c[nH]c2ccccc12)NC(=O)[C@H](CCCCN)NC(=O)[C@@H](Cc1c[nH]c2ccccc12)NC(=O)[C@H](CC(C)C)NC(=O)[C@H](CC(N)=O)NC(=O)[C@H](Cc1c[nH]cn1)NC(=O)[C@H](CCSC)NC(=O)[C@@H](N)Cc1ccccc1 [Peptide 2]	4.5 ± 1.2	6.15 nM and 10.6 nM and 2.07 nM	< 5	> 1200	only small effects	only small effects	150	neither α-peptide 1 nor α/β-peptide 2 substantially reduces	> 1000	neither α-peptide 1 nor α/β-peptide 2 substantially reduces	–	–	–	–
CC[C@H](C)[C@H](NC(=O)[C@H](CCC(=O)O)NC(=O)[C@H](CO)NC(=O)[C@@H](NC(=O)[C@@H](N)CO)C(C)C)C(=O)N[C@@H](CCC(N)=O)C(=O)N[C@@H](CC(C)C)C(=O)N[C@@H](CCSC)C(=O)N[C@@H](Cc1cnc[nH]1)C(=O)N[C@@H](CC(N)=O)C(=O)N[C@@H](CC(C)C)C(=O)NCC(=O)N[C@@H](CCCCN)C(=O)N[C@@H](Cc1cnc[nH]1)C(=O)N[C@@H](CC(C)C)C(=O)N[C@@H](CC(N)=O)C(=O)N[C@@H](CO)C(=O)N[C@@H](CCSC)C(=O)N[C@@H](CCC(=O)O)C(=O)N[C@@H](CCCN=C(N)N)C(=O)N[C@H](C(=O)N[C@@H](CCC(=O)O)C(=O)N[C@@H](Cc1c[nH]c2ccccc12)C(=O)N[C@@H](CC(C)C)C(=O)N[C@@H](CCCN=C(N)N)C(=O)N[C@@H](CCCCN)C(=O)N[C@@H](CCCCN)C(=O)N[C@@H](CC(C)C)C(=O)N[C@@H](CCC(N)=O)C(=O)N[C@@H](CC(=O)O)C(=O)N[C@H](C(=O)N[C@@H](Cc1cnc[nH]1)C(=O)N[C@@H](CC(N)=O)C(=O)N[C@@H](Cc1ccccc1)C(=O)O)C(C)C)C(C)C [PTH(1–34)]	–	–	–	–	–	–	–	–	–	–	300 to 600	highly stable in plasma	–	–
CSCC[C@H](NC(=O)[C@H](CO)NC(=O)[C@H](CO)NC(=O)[C@H](CC(C)C)NC(=O)[C@H](Cc1c[nH]cn1)NC(=O)[C@H](CCCCN)NC(=O)[C@@H](Cc1c[nH]c2ccccc12)NC(=O)[C@H](CC(C)C)NC(=O)[C@H](CC(N)=O)NC(=O)[C@H](Cc1c[nH]cn1)NC(=O)[C@H](CCSC)NC(=O)[C@@H](N)Cc1ccccc1)C(=O)N[C@@H](CCC(=O)O)C(=O)N[C@@H](CCCNC(=N)N)C(=O)N[C@H](C(=O)N[C@@H](CCC(=O)O)C(=O)N[C@@H](Cc1c[nH]c2ccccc12)C(=O)N[C@@H](CC(C)C)C(=O)N[C@@H](CCCNC(=N)N)C(=O)N[C@@H](CCCCN)C(=O)N[C@@H](CCCCN)C(=O)N[C@@H](CC(C)C)C(=O)N[C@@H](CCC(N)=O)C(=O)N[C@@H](CC(=O)O)C(=O)N[C@H](C(=O)N[C@@H](Cc1c[nH]cn1)C(=O)N[C@@H](CC(N)=O)C(=O)N[C@@H](Cc1ccccc1)C(N)=O)C(C)C)C(C)C [Peptide 1, bPTH(7–34) DTrp^12] (H-FMHNL[dW]KHLSSMERVEWLRKKLQDVHNF-NH2; N-terminus assumed)	4.7 ± 1.2	–	–	42	only small effects	only small effects	7.8	neither α-peptide 1 nor α/β-peptide 2 substantially reduces	> 1000	neither α-peptide 1 nor α/β-peptide 2 substantially reduces	–	–	42	acts as an inverse agonist
